Test results as given in patent US20190093170A1, “USE OF TRANSLATIONAL PROFILING TO IDENTIFY TARGET MOLECULES FOR THERAPEUTIC TREATMENT” (THE REGENTS OF THE UNIVERSITY OF CALIFORNIA, priority 2013, published 2019).

Test system: PC3 human prostate cancer cells
Experiment: Ribosome profiling: translational efficiency (ribosome footprint vs RNA-seq read density);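 note: Per-gene footprint-to-mRNA density ratio averaged per codon over the coding sequence, scaled so the median gene equals 1.0 after excluding regulated genes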
Type: cell-based
Conditions: for PP242 TrlEff: 3-hour treatment with PP242 (2.5 μM) in PC3 cells
Experimental: Given the critical role for mTOR in prostate cancer, PC3 human prostate cancer cells, in which mTOR is constitutively hyperactivated, were used to delineate translationally controlled gene expression networks upon complete or partial mTOR inhibition. Ribosome profiling was optimized to assess quantitatively ribosome occupancy genome-wide in cancer cells.
Cells were subsequently treated with cycloheximide (100 μg ml^−1; Sigma) and detergent lysis was performed in the dish. The lysate was treated with DNase and clarified, and a sample was taken for RNA-seq analysis. Lysates were subjected to ribosome footprinting by nuclease treatment. Ribosome-protected fragments were purified, and deep sequencing libraries were generated from these fragments, as well as from poly(A) mRNA purified from non-nuclease-treated lysates. These libraries were analyzed by sequencing on an Illumina GAII.
Ribosome footprint and RNA-seq sequencing reads were aligned against a library of transcripts from the UCSC Known Genes database GRCh37/hg19. The first 25 nucleotides of each read were aligned using Bowtie and this initial alignment was then extended to encompass the full fragment-derived portion of the sequencing read while excluding the linker sequence. Read density profiles were then constructed for the canonical transcript of each gene, using only reads with 0 or 1 total mismatches between the read sequence and the reference sequence, comprised of the transcript fragment followed by the linker sequence. Footprint reads were assigned to an A site nucleotide at position +15 to +17 of the alignment, based on the total fragment length; mRNA reads were assigned to the first nucleotide of the alignment. The average read density per codon was then computed for the coding sequence of each transcript, excluding the first 15 and last 5 codons, which can display atypical ribosome accumulation.
Average read density was used as a measure of mRNA abundance (RNA-seq reads) and of protein synthesis (ribosome profiling reads). For most analyses, genes were filtered to require at least 256 reads in the relevant RNA-seq samples. Translational efficiency was computed as the ratio of ribosome footprint read density to RNA-seq read density, scaled to normalize the translational efficiency of the median gene to 1.0 after excluding regulated genes (log 2 fold-change+1.5 after normalizing for the all-gene median). Changes in protein synthesis, mRNA abundance and translational efficiency were similarly computed as the ratio of read densities between different samples, normalized to give the median gene a ratio of 1.0. This normalization corrects for differences in the absolute number of sequencing reads obtained for different libraries.

Structure (SMILES): CC(C)n1nc(-c2cc3cc(O)ccc3[nH]2)c2c(N)ncnc21 [PP242]
- PP242 TrlEff (gene ACD): −1.02
- TrlEff (gene ACTG1): −1.40
- TrlEff (gene AGRN): −1.29
- TrlEff (gene ALKBH7): −1.27
- TrlEff (gene AP2A1): −1.32
- TrlEff (gene ARD1A): −1.05
- TrlEff (gene ATP5G2): −1.01
- PP242 TrlEff (gene C17orf28): −0.20
- TrlEff (gene C21orf66): −1.03
- PP242 TrlEff (gene CCNA1): 0.66
- TrlEff (gene CCNI): −1.33
- TrlEff (gene CD44): −1.29
- TrlEff (gene CIRBP): −1.08
- TrlEff (gene CLPTM1): −1.13
- TrlEff (gene COL6A2): −1.29
- TrlEff (gene CRTAP): −2.50
- PP242 TrlEff (gene DDX51): −0.51
- PP242 TrlEff (gene DGCR2): 0.02
- TrlEff (gene ECSIT): −1.06
- PP242 TrlEff (gene EEF1A1): −3.53
- TrlEff (gene EEF1A2): −1.94
- TrlEff (gene EEF1D): −2.37
- TrlEff (gene EEF1G): −2.26
- TrlEff (gene EEF2): −3.60
- TrlEff (gene EIF3H): −1.54
- TrlEff (gene EIF3L): −1.47
- TrlEff (gene EIF4B): −2.27
- TrlEff (gene EVPL): −0.79
- TrlEff (gene FAM83H): −1.11
- TrlEff (gene FAM128B): −1.47
- TrlEff (gene FASN): −1.42
- TrlEff (gene GLTSCR2): −2.12
- TrlEff (gene GNB2L1): −2.35
- PP242 TrlEff (gene GTPBP3): −0.83
- TrlEff (gene HNRNPA1): −2.12
- TrlEff (gene HSPA8): −2.25
- TrlEff (gene IMPDH2): −1.33
- TrlEff (gene LAMA5): −0.94
- TrlEff (gene LMF2): −1.36
- PP242 TrlEff (gene MAPK6): −0.29
- PP242 TrlEff (gene MAPKAPK2): 0.92
- TrlEff (gene MTA1): −1.09
- TrlEff (gene NCLN): −0.76
- PP242 TrlEff (gene NFATC21P): 0.35
- PP242 TrlEff (gene NR2F1): −0.09
- TrlEff (gene PABPC1): −2.09
- TrlEff (gene PABPC4): −1.98
- TrlEff (gene PACS1): −1.09
- TrlEff (gene PFDN5): −1.38
- TrlEff (gene PGLS): −1.11
- TrlEff (gene PGM1): −1.35
- TrlEff (gene PNKP): −0.79
- PP242 TrlEff (gene PRKD3): 0.68
- TrlEff (gene PTGES2): −0.65
- TrlEff (gene RABGGTB): −1.46
- PP242 TrlEff (gene RBPJ): −0.03
- TrlEff (gene RPL3): −2.44
- TrlEff (gene RPL4): −1.50
- TrlEff (gene RPL7): −2.02
- TrlEff (gene RPL7A): −2.30
- TrlEff (gene RPL9): −1.59
- TrlEff (gene RPL10): −2.46
- TrlEff (gene RPL10A): −2.16
- TrlEff (gene RPL11): −2.31
- TrlEff (gene RPL12): −2.95
- TrlEff (gene RPL13): −1.56
- TrlEff (gene RPL13A): −3.10
- TrlEff (gene RPL15): −1.20
- TrlEff (gene RPL18A): −2.63
- TrlEff (gene RPL19): −1.35
- TrlEff (gene RPL21): −2.45
- TrlEff (gene RPL22): −1.64
- TrlEff (gene RPL24): −1.41
- TrlEff (gene RPL26): −2.00
- TrlEff (gene RPL27): −1.23
- TrlEff (gene RPL27A): −2.53
- TrlEff (gene RPL28): −2.54
- PP242 TrlEff (gene RPL28): −3.48
- TrlEff (gene RPL31): −2.10
- TrlEff (gene RPL32): −2.33
- TrlEff (gene RPL34): −2.63
- TrlEff (gene RPL36A): −1.98
- TrlEff (gene RPL37A): −2.38
- TrlEff (gene RPL39): −2.41
- PP242 TrlEff (gene RPL39): −2.53
- TrlEff (gene RPL41): −1.28
- TrlEff (gene RPLP0): −1.61
- TrlEff (gene RPLP1): −2.06
- TrlEff (gene RPLP2): −2.10
- TrlEff (gene RPS2): −2.25
- TrlEff (gene RPS3): −2.16
- TrlEff (gene RPS3A): −2.17
- TrlEff (gene RPS4X): −2.06
- TrlEff (gene RPS5): −2.25
- TrlEff (gene RPS7): −1151
- TrlEff (gene RPS9): −2.27
- TrlEff (gene RPS12): −3.00
- TrlEff (gene RPS13): −1.54
- TrlEff (gene RPS14): −1.50
- TrlEff (gene RPS15): −1.19
- TrlEff (gene RPS15A): −2.31
- TrlEff (gene RPS19): −2.34
- TrlEff (gene RPS20): −2.46
- PP242 TrlEff (gene RPS20): −2.78
- TrlEff (gene RPS21): −2.09
- TrlEff (gene RPS25): −2.13
- TrlEff (gene RPS27): −2.71
- PP242 TrlEff (gene RPS27): −3.35
- TrlEff (gene RPS27A): −1.61
- TrlEff (gene RPS28): −2.67
- PP242 TrlEff (gene SDCCAG10): 0.23
- TrlEff (gene SLC19A1): −1.07
- TrlEff (gene TKT): −1.58
- TrlEff (gene TPT1): −1.94
- TrlEff (gene TSC2): −1.09
- TrlEff (gene UBA52): −1.62
- PP242 TrlEff (gene UBTD2): 0.27
- PP242 TrlEff (gene UCHL5): 0.40
- PP242 TrlEff (gene VHL): 0.52
- TrlEff (gene VIM): −2.38
- TrlEff (gene YB1): −2.30
